# Measured values as given in patent US10662171B2, “Antidiabetic bicyclic compounds” (Merck Sharp & Dohme Corp., priority 2014, dated 2020).
# Target: T1, human GPR40 (Homo sapiens, UniProt O14842)
# T1 construct: expressed in transfected cells; host or cells: HEK cells stably expressing the aequorin reporter
# Assay: Inositol Phosphate Turnover (IP1) Assay 2
# Type: cell-based
# Conditions: HEK cells stably expressing human GPR40; compound acoustically transferred; 60 minutes at 37 degrees
# Protocol: Human and mouse GPR40 stable cell-lines were generated in CHO cells stably expressing NFAT BLA (Beta-lactamase). A human GPR40 stable cell-line was generated in HEK cells stably expressing the aequorin expressing reporter. The expression plasmids were transfected using lipofectamine (Life Technologies) following manufacturer's instructions. Stable cell-lines were generated following drug selection.
# The assay is performed in 384-well format. HEK cells stably expressing human GPR40 are plated at 15,000 cells per well in growth medium (DMEM/10% fetal calf serum). Cell plates are then incubated 16 hours at 37 degrees in a 5% CO2 incubator.
# Measurement of Inositol Phosphate Turnover (IP1) is performed using the CisBio IP-One kit (Part number 62IPAPEB). After the 16 hour incubation, the cells are washed with HEPES buffer and 10 ul of stimulation buffer (prepared as described in the kit) is added to each well. In a separate plate, compounds are diluted in DMSO (400-fold over the final concentration in the assay well) and 25 nl is acoustically transferred to the appropriate well in the assay cell plate. The plates were then incubated for 60 minutes at 37 degrees. 10 ul of detection buffer (also prepared as described in the IP-One kit) is added to each well and the plates are incubated for 60 minutes in the dark. The plates are then read in a Perkin Elmer EnVision or equivalent reader able to measure FRET. Fluorescent ratio of emission at 665 and 620 nm is then converted to IP1 concentration by back calculating from an IP1 standard curve prepared at the time of the assay.
# T1 sequence (O14842 whole entry): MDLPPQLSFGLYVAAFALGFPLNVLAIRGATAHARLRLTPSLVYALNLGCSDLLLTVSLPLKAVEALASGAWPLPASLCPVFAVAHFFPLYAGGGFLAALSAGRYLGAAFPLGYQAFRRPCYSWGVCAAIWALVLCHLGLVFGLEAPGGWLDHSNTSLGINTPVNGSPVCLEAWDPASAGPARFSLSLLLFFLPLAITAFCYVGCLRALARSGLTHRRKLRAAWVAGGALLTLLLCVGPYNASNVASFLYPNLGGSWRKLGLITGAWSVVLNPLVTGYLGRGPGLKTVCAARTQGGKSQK
row,Compound,EC50
1,"COc1ccc(F)c(-c2ccc([C@H]3Cc4cc([C@H](C5CC5)[C@H](C)C(=O)O)ccc4CO3)cc2)c1 [Example 22, (2S,3R)-3-cyclopropyl-3-((R)-3-(2′-fluoro-5′-methoxy-1,1′-biphenyl-4-yl)isochroman-6-yl)-2-methylpropanoic acid]",0.5 nM
2,"COc1cc(-c2ccc([C@@H]3Cc4cc([C@H](C5CC5)[C@H](C)C(=O)O)ccc4CO3)c(F)c2)ccn1 [Example 38A, (2S,3R)-3-cyclopropyl-3-((S)-3-(2-fluoro-4-(2-methoxypyridin-4-yl)phenyl)isochroman-6-yl)-2-methylpropanoic acid]",4.2 nM
3,"COc1cc(-c2ccc([C@H]3Cc4cc([C@H](C5CC5)[C@H](C)C(=O)O)ccc4CO3)c(F)c2)ccn1 [Example 38B, (2S,3R)-3-cyclopropyl-3-((R)-3-(2-fluoro-4-(2-methoxy-pyridin-4-yl)phenyl)isochroman-6-yl)-2-methylpropanoic acid]",24.5 nM
4,"C[C@H](C(=O)O)[C@H](c1ccc2c(c1)CC(C1CCN(c3ncccc3C(F)(F)F)CC1)OC2)C1CC1 (stereo partly drawn) [Example 40, (2S,3R)-3-cyclopropyl-2-methyl-3-(3-(1-(3-(trifluoromethyl)pyridin-2-yl)piperidin-4-yl)isochroman-6-yl)propanoic acid]",54 nM
